Laboratory results taken from ChEMBL document CHEMBL5050844 (2019).
Blank lines part the entries; values can stand above or below the compound they belong to.

Legend:
[1] = target: E3 ubiquitin-protein ligase CBL-B (Homo sapiens, UniProt Q13191); assay: Inhibition of N-terminal Avi-tagged human CBL-B (36 to 427 residues) incubated with 60 nM Src kinase for 1.5 hrs followed by incubation with fluorescently labeled UbcH5B-Ub for 1 hr and measured by TR-FRET assay; type: single protein
[2] = Induction of anti-CD3/CD28 antibodies-stimulated human T cell activation at 1 uM assessed fold increase in IL-2 secretion measured by ELISA assay; type: functional, T cell line
[3] = Induction of anti-CD3/CD28 antibodies-stimulated human T cell activation at 0.3 uM assessed fold increase in IL-2 secretion measured by ELISA assay; type: functional, T cell line
[4] = Induction of anti-CD3 antibodies-stimulated human T cell activation at 1 uM assessed fold increase in IL-2 secretion measured by ELISA assay; type: functional, T cell line; further: reference of the scale not given here
[5] = Induction of anti-CD3/CD28 antibodies-stimulated human T cell activation at 1 uM assessed fold increase in CD25 expression measured by ELISA assay; type: functional, T cell line
[6] = Induction of anti-CD3/CD28 antibodies-stimulated human T cell activation at 0.3 uM assessed fold increase in CD25 expression measured by ELISA assay; type: functional, T cell line
[7] = Induction of anti-CD3 antibodies-stimulated human T cell activation at 1 uM assessed fold increase in CD25 expression measured by ELISA assay; type: functional, T cell line; further: reference of the scale not given here

Sequence of E3 ubiquitin-protein ligase CBL-B (Q13191 whole entry, the tested form may be a part): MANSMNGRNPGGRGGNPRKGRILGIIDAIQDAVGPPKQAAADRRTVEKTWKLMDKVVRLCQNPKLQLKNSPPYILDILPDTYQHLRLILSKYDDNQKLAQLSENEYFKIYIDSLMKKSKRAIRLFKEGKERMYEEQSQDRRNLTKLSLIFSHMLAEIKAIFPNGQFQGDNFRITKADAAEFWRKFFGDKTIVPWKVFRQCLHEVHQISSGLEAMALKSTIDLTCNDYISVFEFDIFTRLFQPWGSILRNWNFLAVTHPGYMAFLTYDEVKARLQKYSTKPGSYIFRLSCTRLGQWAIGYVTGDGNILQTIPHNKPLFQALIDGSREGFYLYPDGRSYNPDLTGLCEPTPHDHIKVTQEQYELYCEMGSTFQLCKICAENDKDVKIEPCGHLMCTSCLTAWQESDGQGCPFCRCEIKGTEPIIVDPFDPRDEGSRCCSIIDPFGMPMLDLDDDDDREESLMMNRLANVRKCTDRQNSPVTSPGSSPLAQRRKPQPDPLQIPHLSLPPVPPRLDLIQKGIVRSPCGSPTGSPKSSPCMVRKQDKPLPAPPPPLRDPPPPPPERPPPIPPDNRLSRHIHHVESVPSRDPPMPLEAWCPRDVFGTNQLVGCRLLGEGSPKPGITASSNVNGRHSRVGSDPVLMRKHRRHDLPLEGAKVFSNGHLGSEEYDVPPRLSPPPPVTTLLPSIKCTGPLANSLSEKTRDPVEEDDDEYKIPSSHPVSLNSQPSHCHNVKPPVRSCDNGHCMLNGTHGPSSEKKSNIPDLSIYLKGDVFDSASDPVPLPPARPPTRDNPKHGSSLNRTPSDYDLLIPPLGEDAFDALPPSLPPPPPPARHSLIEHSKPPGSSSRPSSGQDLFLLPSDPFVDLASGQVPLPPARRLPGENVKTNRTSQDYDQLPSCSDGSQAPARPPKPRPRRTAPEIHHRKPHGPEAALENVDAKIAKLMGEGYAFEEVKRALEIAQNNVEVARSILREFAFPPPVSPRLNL

IC50 [1]: < 100 nM
SMILES: CN1CC[C@@H](O)[C@H](Cc2cc3c(c(C(F)(F)F)c2)CN(c2cccc(C4(Cc5nncn5C)COC4)c2)C3=O)C1 (relative stereo)
fold change (FC) [2]: 2.51
fold change (FC) [3]: 1.01
fold change (FC) [4]: 0.101
fold change (FC) [5]: 1.01
fold change (FC) [6]: 1.01
fold change (FC) [7]: 0.801

IC50 [1]: < 100 nM
SMILES: Cn1cnnc1CC1(c2cccc(N3Cc4c(cc(CN5Cc6cccc(F)c6C5)cc4C(F)(F)F)C3=O)c2)COC1
fold change (FC) [2]: >=7.5
fold change (FC) [3]: 2.51
fold change (FC) [4]: >=0.201
fold change (FC) [5]: 1.31
fold change (FC) [6]: 1.31
fold change (FC) [7]: >=1.001

IC50 [1]: < 100 nM
SMILES: Cn1cnnc1CC1(c2cccc(N3Cc4c(cc(CN5CC[C@@H]6C[C@@H]65)cc4C(F)(F)F)C3=O)c2)COC1
fold change (FC) [2]: >=7.5
fold change (FC) [3]: >=7.5
fold change (FC) [4]: >=0.201
fold change (FC) [5]: 1.51
fold change (FC) [6]: 1.51
fold change (FC) [7]: >=1.001

IC50 [1]: < 100 nM
SMILES: CCN1CCN(Cc2cc3c(c(C(F)(F)F)c2)CN(c2cccc(C4(Cc5nncn5C)COC4)c2)C3=O)CC1
fold change (FC) [2]: >=7.5
fold change (FC) [3]: 5
fold change (FC) [4]: >=0.201
fold change (FC) [5]: 1.31
fold change (FC) [6]: 1.31
fold change (FC) [7]: >=1.001

IC50 [1]: < 100 nM
SMILES: CC1CCN(Cc2cc3c(c(C(F)(F)F)c2)CN(c2cccc(C4(Cc5nncn5C)COC4)c2)C3=O)CC1(F)F (centres undefined)
fold change (FC) [2]: >=7.5
fold change (FC) [3]: >=7.5
fold change (FC) [4]: >=0.201
fold change (FC) [5]: 1.31
fold change (FC) [6]: 1.31
fold change (FC) [7]: >=1.001

IC50 [1]: < 100 nM
SMILES: COC1CCN(Cc2cc3c(c(C(F)(F)F)c2)CN(c2cccc(C4(Cc5nncn5C)COC4)c2)C3=O)CC1
fold change (FC) [2]: >=7.5
fold change (FC) [3]: >=7.5
fold change (FC) [4]: >=0.201
fold change (FC) [5]: 1.51
fold change (FC) [6]: 1.31
fold change (FC) [7]: >=1.001

IC50 [1]: < 100 nM
SMILES: Cn1cnnc1CC1(c2cccc(N3Cc4c(cc(CN5CCC6CC6C5)cc4C(F)(F)F)C3=O)c2)COC1 (centres undefined)
fold change (FC) [2]: >=7.5
fold change (FC) [3]: >=7.5
fold change (FC) [4]: >=0.201
fold change (FC) [5]: 1.31
fold change (FC) [6]: 1.31
fold change (FC) [7]: >=1.001

Second part, the compound before the results:

SMILES: Cn1cnnc1CC1(c2cccc(N3Cc4c(cc(CN5C6CCC5CC6)cc4C(F)(F)F)C3=O)c2)COC1
IC50 [1]: < 100 nM
fold change (FC) [2]: >=7.5
fold change (FC) [3]: >=7.5
fold change (FC) [4]: >=0.201
fold change (FC) [5]: 1.51
fold change (FC) [6]: 1.51
fold change (FC) [7]: >=1.001

SMILES: CN1C2CCC1CN(c1cc3c(c(C(F)(F)F)c1)CN(c1cccc([C@@](C)(F)C(F)(F)c4nncn4C)c1)C3=O)C2
IC50 [1]: < 100 nM
fold change (FC) [2]: 2.51
fold change (FC) [3]: 1.01
fold change (FC) [4]: 0.101
fold change (FC) [5]: 1.31
fold change (FC) [6]: 1.01
fold change (FC) [7]: 0.801

SMILES: Cn1cnnc1CC1(c2cccc(N3Cc4c(cc(C5CC5)nc4C4CC4)C3=O)c2)COC1
IC50 [1]: < 100 nM
fold change (FC) [2]: 1.01
fold change (FC) [3]: 1.01
fold change (FC) [4]: 0.101
fold change (FC) [5]: 1.01
fold change (FC) [6]: 1.01
fold change (FC) [7]: 0.801

SMILES: Cn1cnnc1[C@H](F)C1(c2cccc(N3Cc4c(cc(CN5CCCCC5)cc4C(F)(F)F)C3=O)c2)COC1
IC50 [1]: < 100 nM
fold change (FC) [2]: >=7.5
fold change (FC) [3]: >=7.5
fold change (FC) [4]: >=0.201
fold change (FC) [5]: 1.01
fold change (FC) [6]: 1.01
fold change (FC) [7]: >=1.001

SMILES: C[C@H](c1cc2c(c(C(F)(F)F)c1)CN(c1cccc(C3([C@H](F)c4nncn4C)COC3)c1)C2=O)N1CCC2(CC2)C1 (single isomer, unassigned)
IC50 [1]: < 100 nM
fold change (FC) [2]: >=7.5
fold change (FC) [3]: >=7.5
fold change (FC) [4]: >=0.201
fold change (FC) [5]: >=1.76
fold change (FC) [6]: >=1.76
fold change (FC) [7]: >=1.001

SMILES: Cn1cnnc1CC1(c2cccc(NC(=O)c3[nH]nc4c3OCCC4)c2)COC1
IC50 [1]: < 100 nM
fold change (FC) [2]: 1.01
fold change (FC) [3]: 1.01
fold change (FC) [4]: 0.051
fold change (FC) [5]: 1.01
fold change (FC) [6]: 1.01
fold change (FC) [7]: 0.601

SMILES: CC(c1cc2c(c(C3CC3)n1)CN(c1cccc(C3(Cc4nncn4C)COC3)c1)C2=O)N1CC2(CC2)C1 (centres undefined)
IC50 [1]: < 100 nM
fold change (FC) [2]: 2.51
fold change (FC) [3]: 1.01
fold change (FC) [4]: <=0.05
fold change (FC) [5]: 1.01
fold change (FC) [6]: 1.01
fold change (FC) [7]: 0.601

SMILES: Cc1cc(C(=O)Nc2cccc(C3(Cc4nncn4C)CCC3)c2)nc(C2CC2)n1
IC50 [1]: < 100 nM
fold change (FC) [2]: >=7.5
fold change (FC) [3]: >=7.5
fold change (FC) [4]: 0.051
fold change (FC) [5]: 1.31
fold change (FC) [6]: 1.31
fold change (FC) [7]: >=1.001

SMILES: Cc1cc2c(c(C3CC3)n1)CN(c1cccc(C3(Cc4nncn4C)COC3)c1)C2=O
IC50 [1]: < 100 nM
fold change (FC) [2]: 2.51
fold change (FC) [3]: 1.01
fold change (FC) [4]: 0.051
fold change (FC) [5]: 1.31
fold change (FC) [6]: 1.01
fold change (FC) [7]: 0.801

SMILES: Cc1cc(C(=O)Nc2cc(C3CC3)cc(C3(Cc4nncn4C)COC3)c2)nc(C2CC2)n1
IC50 [1]: < 100 nM
fold change (FC) [2]: >=7.5
fold change (FC) [3]: 2.51
fold change (FC) [4]: >=0.201
fold change (FC) [5]: 1.31
fold change (FC) [6]: 1.01
fold change (FC) [7]: >=1.001

SMILES: Cn1cnnc1CC1(c2cccc(NC(=O)c3cc(N4CC(C(F)F)C4)nc(C4CC4)n3)c2)COC1
IC50 [1]: < 100 nM
fold change (FC) [2]: >=7.5
fold change (FC) [3]: 2.51
fold change (FC) [4]: 0.101
fold change (FC) [5]: 1.01
fold change (FC) [6]: 1.01
fold change (FC) [7]: 0.801

SMILES: C[C@H](Cc1nncn1C)c1cc(C2CCOC2)nc(N2Cc3c(cccc3C(F)(F)F)C2=O)c1 (some centres undefined)
IC50 [1]: ≤ 1000 nM
fold change (FC) [2]: 1.01
fold change (FC) [3]: 1.01
fold change (FC) [4]: <=0.05
fold change (FC) [5]: 1.01
fold change (FC) [6]: 1.01
fold change (FC) [7]: <=0.6

SMILES: Cn1cnnc1CC1(c2cccc(N3Cc4c(cc(OC5CNC5)cc4C(F)(F)F)C3=O)c2)COC1
IC50 [1]: < 100 nM
fold change (FC) [2]: 1.01
fold change (FC) [3]: 1.01
fold change (FC) [4]: 0.051
fold change (FC) [5]: 1.01
fold change (FC) [6]: 1.01
fold change (FC) [7]: 0.801

SMILES: Cn1cnnc1CC1(c2cccc(NC(=O)c3cc(CN4CC[C@H](F)C4)nc(C4CC4)n3)c2)COC1
IC50 [1]: < 100 nM
fold change (FC) [2]: >=7.5
fold change (FC) [3]: >=7.5
fold change (FC) [4]: >=0.201
fold change (FC) [5]: 1.51
fold change (FC) [6]: 1.51
fold change (FC) [7]: >=1.001

SMILES: CC1CN(c2cc3c(c(C(F)(F)F)c2)CN(c2cccc(C4(Cc5nncn5C)COC4)c2)C3=O)C1C (centres undefined)
IC50 [1]: < 100 nM
fold change (FC) [2]: 2.51
fold change (FC) [3]: 1.01
fold change (FC) [4]: 0.051
fold change (FC) [5]: 1.01
fold change (FC) [6]: 1.01
fold change (FC) [7]: 0.601
